Experimental data as given in ChEMBL document CHEMBL1122455, “(Mercaptopropanoyl)indoline-2-carboxylic acids and related compounds as potent angiotensin converting enzyme inhibitors and antihypertensive agents” (J Med Chem, 1983).

Legend:
Rattus norvegicus [1] = assay: Dose required to lower blood pressure of SHR by 25 mmHg at 4-h post dose p.o.; format: functional; settings: po
[2] = molecular target: T1, Angiotensin-converting enzyme (Rattus norvegicus, UniProt P47820); assay: In vitro inhibitory activity against Angiotensin I converting enzyme
T1 sequence (P47820 whole entry): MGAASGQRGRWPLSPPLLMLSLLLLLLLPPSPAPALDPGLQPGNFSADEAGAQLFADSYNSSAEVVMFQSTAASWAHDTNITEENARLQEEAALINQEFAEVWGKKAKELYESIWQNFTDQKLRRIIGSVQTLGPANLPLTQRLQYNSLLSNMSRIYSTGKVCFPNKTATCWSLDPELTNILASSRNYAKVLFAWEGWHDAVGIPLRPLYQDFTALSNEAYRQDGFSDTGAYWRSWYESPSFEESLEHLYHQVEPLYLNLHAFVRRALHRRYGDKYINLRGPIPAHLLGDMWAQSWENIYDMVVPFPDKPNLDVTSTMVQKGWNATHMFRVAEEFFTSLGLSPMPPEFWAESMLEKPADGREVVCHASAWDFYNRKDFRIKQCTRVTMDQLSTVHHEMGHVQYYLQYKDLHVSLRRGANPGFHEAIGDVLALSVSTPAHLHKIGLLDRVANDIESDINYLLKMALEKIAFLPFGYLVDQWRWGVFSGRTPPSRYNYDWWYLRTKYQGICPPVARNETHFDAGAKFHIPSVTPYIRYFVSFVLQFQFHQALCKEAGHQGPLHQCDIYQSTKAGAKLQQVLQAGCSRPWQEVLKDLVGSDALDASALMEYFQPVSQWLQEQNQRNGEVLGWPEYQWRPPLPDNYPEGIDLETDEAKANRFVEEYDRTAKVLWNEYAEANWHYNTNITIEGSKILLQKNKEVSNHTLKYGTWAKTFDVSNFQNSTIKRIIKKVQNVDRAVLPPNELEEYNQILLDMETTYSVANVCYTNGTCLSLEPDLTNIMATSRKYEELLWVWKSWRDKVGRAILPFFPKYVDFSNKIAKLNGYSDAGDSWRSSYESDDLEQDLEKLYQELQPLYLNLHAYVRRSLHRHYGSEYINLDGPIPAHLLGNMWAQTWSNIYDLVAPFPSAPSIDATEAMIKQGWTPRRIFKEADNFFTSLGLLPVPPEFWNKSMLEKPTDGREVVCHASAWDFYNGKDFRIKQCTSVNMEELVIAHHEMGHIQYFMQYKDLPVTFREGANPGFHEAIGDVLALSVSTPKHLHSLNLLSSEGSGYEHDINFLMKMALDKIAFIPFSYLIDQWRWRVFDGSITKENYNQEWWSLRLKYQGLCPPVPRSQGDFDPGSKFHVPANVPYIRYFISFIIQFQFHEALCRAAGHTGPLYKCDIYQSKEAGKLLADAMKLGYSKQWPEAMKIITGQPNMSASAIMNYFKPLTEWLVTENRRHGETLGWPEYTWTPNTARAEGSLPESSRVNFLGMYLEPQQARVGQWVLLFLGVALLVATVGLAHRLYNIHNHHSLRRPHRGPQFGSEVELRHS

Rattus norvegicus [3] = assay: Dose required to inhibit 50% of the angiotensin I induced vasopressor response p.o.; format: functional; settings: po, read-out: ID50 (the source's name)

SMILES	ED25 (Rattus norvegicus [1])	IC50 [2]	ED50 (Rattus norvegicus [3])
CCc1ccc2c(c1)CC(C(=O)O)N2C(=O)C(C)CSC(=O)c1ccccc1 (stereo not drawn)	> 100 mg/kg	0.03 µM	–
C=CC(=O)N1c2ccccc2CC1C(=O)O (stereo not drawn)	–	> 1000 µM	–
C=C(C)C(=O)N1c2ccccc2C[C@@H]1C(=O)O	–	> 1000 µM	–
C=C(C)C(=O)N1c2ccccc2CC1C(=O)O (stereo not drawn)	–	> 1000 µM	–
C[C@H](CSC[C@@H](C)C(=O)N1c2ccccc2C[C@H]1C(=O)O)C(=O)N1c2ccccc2C[C@H]1C(=O)O	24 mg/kg	1.3 µM	–
COc1ccc2c(c1)CC(C(=O)O)N2C(=O)C(C)CSC(=O)c1ccccc1 (stereo not drawn) [listing 1 of 2 here]	–	0.094 µM	–
C=C(C)C(=O)N1c2ccccc2C[C@H]1C(=O)O	–	> 100 µM	–
C=C(C)C(=O)N1c2ccc(OC)cc2CC1C(=O)O (stereo not drawn)	–	> 1000 µM	–
O=C(SCCC(=O)N1c2ccccc2CC1C(=O)O)c1ccccc1 (stereo not drawn)	12.5 mg/kg	0.059 µM	1.95 mg/kg
C[C@H](CSC(=O)c1ccccc1)C(=O)N1c2ccccc2C[C@H]1C(=O)O [listing 1 of 2 here]	1.03 mg/kg	0.038 µM	2 mg/kg
C[C@@H]1CSC(=O)[C@H]2Cc3ccccc3N2C1=O	–	20 µM	–
C1CCC(NC2CCCCC2)CC1.COc1ccc2c(c1)C[C@@H](C(=O)O)N2C(=O)[C@H](C)CSC(=O)c1ccccc1	20 mg/kg	0.042 µM	–
C[C@H](CSC(=O)c1ccccc1)C(=O)N1c2ccccc2C[C@H]1C(=O)O [listing 2 of 2 here]	–	0.32 µM	–
C[C@@H](CSC(=O)c1ccccc1)C(=O)N1c2ccccc2C[C@H]1C(=O)O	–	0.38 µM	–
C[C@@H]1CSC(=O)[C@@H]2Cc3ccccc3N2C1=O	2 mg/kg	0.014 µM	–
C[C@@H](CSC(=O)c1ccccc1)C(=O)N1c2ccccc2C[C@@H]1C(=O)O [listing 1 of 2 here]	–	> 100 µM	–
C1CCC(NC2CCCCC2)CC1.C[C@@H](CSC(=O)c1ccccc1)C(=O)N1c2ccccc2C[C@H]1C(=O)O	39 mg/kg	0.54 µM	–
C[C@@H](CSC(=O)c1ccccc1)C(=O)N1c2ccccc2C[C@@H]1C(=O)O [listing 2 of 2 here]	–	> 100 µM	–
COc1ccc2c(c1)CC(C(=O)O)N2C(=O)C(C)CSC(=O)c1ccccc1 (stereo not drawn) [listing 2 of 2 here]	–	0.097 µM	–
C[C@@H](CSC(=O)c1ccccc1)C(=O)N1c2ccccc2C[C@H]1C(=O)O (racemic)	–	3.5 µM	–
C[C@@H](CSC(=O)c1ccccc1)C(=O)N1c2ccccc2C[C@@H]1C(=O)O (racemic)	100 mg/kg	1.2 µM	–
CC(CSC(=O)c1ccccc1)C(=O)N1c2ccccc2CC1C(=O)O (stereo in doubt; form 1)	–	0.41 µM	–
CC(=O)SCC(C)C(=O)N1c2ccccc2CC1C(=O)O (stereo in doubt; form 1)	–	15 µM	–
CC(CSC(=O)c1ccccc1)C(=O)N1c2ccccc2CC1C(=O)O (stereo in doubt; form 2)	–	0.078 µM	–
CC(=O)SCC(C)C(=O)N1c2ccccc2CC1C(=O)O (stereo in doubt; form 2)	13 mg/kg	0.011 µM	–
C[C@H](CS)C(=O)N1CCC[C@H]1C(=O)O [CAPTOPRIL]	17.8 mg/kg	–	0.57 mg/kg
